Measurements as given in US7169768B1, “Method of decreasing atherosclerosis and its complications” (priority 1997, dated 2007).

Assay: Retrospective questionnaire study of patient-reported cardiac events (heart attack, coronary artery bypass or angioplasty)
Format: in vivo, patients
Details: for Events/Year: cardiac events per subject year, patients on drug for at least one year; for Cardiac Events: number of cardiac events (history of heart attack, coronary artery bypass or angioplasty) in patients on drug for at least one year; for heart attacks compared with controls (in words): treated patients vs controls; for observed difference between the proportions vs Total Control: treated group vs Total Control (Groups 1 + 4)
Experimental: A retrospective study was performed which compared the rates of patient reported heart attack in several groups: 1—control group of males entering the urology office for any routine complaint. 2—a group of prostate cancer patients treated with Leuprolide acetate, a LHRH inhibitor. 3—a group of prostate cancer patients treated with Goserelin acetate (Zoladex), a LHRH inhibitor. 4—a group of prostate cancer patients not treated with hormonal manipulation (neither Leuprolide or Goserelin). 5—a group of patients treated with Finasteride (another form of hormonal manipulation). 6—all patients on LHRH inhibitors (group 2+group 3). The patients on either leuprolide acetate or goserelin acetate were treated with the recommended doses indicated for the treatment of prostatic carcinoma, at either one or three month intervals depending on the preparation used. Leuprolide was dosed at 7.5 mg monthly (single intramuscular injection) or at 22.5 mg at 3 month intervals (single intramuscular injection). Goserelin was dosed at 3.6 mg monthly (subcutaneous injection) or at a dose of 10.8 mg at 3 month intervals (subcutaneous injection). The various groups of office patients were given a questionnaire. In groups 2, 3 and 5 only those on drug for at least one year were considered. Cardiac event is defined as either the history of a heart attack or occurrence of coronary artery bypass or angioplasty. In control groups only events occurring in the 3 years prior to the questionnaire are charted.

SMILES | observed difference between the proportions vs Group 1 (Control) (Group 5 vs Group 1 (control, no cancer)) | Events/Year | Cardiac Events | heart attacks compared with controls (in words) | observed difference between the proportions vs Total Control
CC(C)(C)NC(=O)[C@H]1CC[C@H]2[C@@H]3CC[C@H]4NC(=O)C=C[C@]4(C)[C@H]3CC[C@]12C [Finasteride] | 0.0186 | .0165 | 4 | fewer heart attacks than control | 
CC(C)C[C@H](NC(=O)[C@@H](COC(C)(C)C)NC(=O)[C@H](Cc1ccc(O)cc1)NC(=O)[C@H](CO)NC(=O)[C@H](Cc1c[nH]c2ccccc12)NC(=O)[C@H](Cc1cnc[nH]1)NC(=O)[C@@H]1CCC(=O)N1)C(=O)N[C@@H](CCCNC(=N)N)C(=O)N1CCC[C@H]1C(=O)NNC(N)=O [goserelin acetate, pyro-Glu-His-Trp-Ser-Tyr-D-Ser(Bu)-Leu-Arg-Pro-Azgly-NH2 acetate] |  | .0161 | 1 | fewer heart attacks than controls | 0.0177
CC(=O)O.CCNC(=O)[C@@H]1CCCN1C(=O)[C@H](CCCNC(=N)N)NC(=O)[C@H](CC(C)C)NC(=O)[C@@H](CC(C)C)NC(=O)[C@H](Cc1ccc(O)cc1)NC(=O)[C@H](CO)NC(=O)[C@H](Cc1c[nH]c2ccccc12)NC(=O)[C@H](Cc1c[nH]cn1)NC(=O)[C@@H]1CCC(=O)N1 [leuprolide acetate, 5-oxo-L-prolyl-L-histidyl-L-tryptophyl-L-seryl-L-tyrosyl-D-leucyl-L-leucyl-L-arginyl-N-ethyl-L-prolinamide acetate salt] |  | .00847 | 1 | fewer heart attacks than controls | 0.0253
